These results are taken from PMC12460146, “Impact of metabolic enzyme activity variability on dabrafenib disposition” (Frontiers in Pharmacology, 2025).

In series [1] the test system is rat liver microsomes (RLM). The series can be described thus: Michaelis-Menten kinetics of dabrafenib metabolism (hydroxy-dabrafenib formation) in RLM. Type of series: in vitro ADME. The following applies: RLM 0.5 mg/mL, dabrafenib 0.5–200 µM. On the procedure:
RLM was obtained according to established methods ([Wang et al., 2015]). Briefly, rat livers were weighed and homogenized in ice-cold phosphate buffer containing […] sucrose. The homogenate was centrifuged at 17,000 × g for 15 min at 4 °C. The supernatant was transferred to new tubes and recentrifuged at 17,000 × g for 15 min. The resulting supernatant was then ultracentrifuged at 100,000 × g for 60 min at 4 °C. The microsomal pellet was resuspended in ice-cold 0.01 mmol/L PBS (pH = 7.2–7.4). Protein concentration was determined using a Bradford assay kit (Thermo Scientific, Waltham, MA, United States).
(§1) The 200 µL incubation system contained 0.1 M Tris-HCl (pH = 7.6), 0.5 mg/mL RLM or HLM, 1 mM NADPH, and dabrafenib. […] Carbamazepine (100 ng/mL) was added as the IS. […] Hydroxy-dabrafenib concentrations were quantified via UPLC-MS/MS.
(§2) For kinetic studies, Michaelis-Menten curves were obtained using dabrafenib concentrations (0.5–200 µM) in RLM and HLM. Samples were processed as above. Curves were plotted (dabrafenib concentration vs. V) and fitted nonlinearly (Prism 9, GraphPad).
The concentrations of dabrafenib and hydroxy-dabrafenib were quantified by UPLC-MS/MS. […] Quantification transitions were m/z 520.10 → 307.20 for dabrafenib, m/z 536.20 → 323.10 for hydroxy-dabrafenib, and m/z 237.10 → 194.10 for IS.

Series [2] concerns human liver microsomes (HLM). The series can be described thus: Michaelis-Menten kinetics of dabrafenib metabolism (hydroxy-dabrafenib formation) in HLM. Type of series: in vitro ADME. The conditions noted are these: HLM 0.5 mg/mL, dabrafenib 0.5–200 µM. Here is the method:
as §1, §2
The concentrations of dabrafenib and hydroxy-dabrafenib were quantified by UPLC-MS/MS. Chromatographic separation was performed on a Waters Acquity UPLC BEH C18 column (2.1 mm × 50 mm, 1.7 µm particle size) maintained at 40 °C. The mobile phase consisted of 0.1% aqueous formic acid (A) and acetonitrile (B), delivered at 0.3 mL/min with the following gradient program: 90% A (0–0.15 min), linear transition to 10% A (0.15–0.8 min), 10% A (0.8–1.5 min), and return to 90% A (1.5–2 min). Total run time was 2 min. Detection employed a Waters Xevo TQS triple quadrupole mass spectrometer (Milford, MA, United States) operated in positive-ion multiple reaction monitoring mode. Quantification transitions were m/z 520.10 → 307.20 for dabrafenib, m/z 536.20 → 323.10 for hydroxy-dabrafenib, and m/z 237.10 → 194.10 for IS.

The target of the next series is T1, CYP3A4.1 (Homo sapiens, UniProt P08684).
T1 construct: made in house; host or cells: insect cells (baculovirus, pFastBac-Dual)
The series is described as follows: In vitro enzyme kinetics assay using CYP3A4 baculosomes: CYP3A4.1. Type of series: in vitro ADME. The conditions noted are these: dabrafenib 5–250 µM. On the procedure:
(§3) Recombinant CYP3A4 and CYPb5 proteins were prepared according to our previously established protocol ([Fang et al., 2017]). Briefly, dual expression vectors (pFastBac-Dual) were used to construct CYP3A4-CYPOR and CYPb5-CYPOR expression plasmids. Subsequently, the corresponding baculosomes were harvested by ultracentrifugation using the baculovirus-insect cell expression system, and the target proteins were confirmed. Protein expression levels for each type were qualitatively and quantitatively assessed by Western blotting and BCA assay, respectively.
(§4) The 200 µL incubation system comprised 0.1 M Tris-HCl, 5 µg CYP3A4.1 or other CYP3A4 variants, 5 µg CYPb5, 1 mM NADPH, and dabrafenib. A dabrafenib concentration of 10 µM was used to evaluate variant specific metabolic activity. Michaelis-Menten kinetics were assessed using dabrafenib concentrations of 5, 10, 20, 50, 100, and 250 µM. Subsequent processing steps followed the procedures outlined in Section 2.3.

Another series concerns the target T2, CYP3A4.8 (Homo sapiens, UniProt P08684, R130Q).
T2 construct: made in house; host or cells: insect cells (baculovirus, pFastBac-Dual)
The series can be described thus: In vitro enzyme kinetics assay using CYP3A4 baculosomes: CYP3A4.8. Type of series: in vitro ADME. On the procedure:
as §3, §4

The target in a further series is T3, CYP3A4.20 (Homo sapiens, UniProt P08684).
T3 construct: made in house; host or cells: insect cells (baculovirus, pFastBac-Dual)
The series is described as follows: In vitro enzyme kinetics assay using CYP3A4 baculosomes: CYP3A4.20. Type of series: in vitro ADME. Here is the method:
as §3, §4

The next series addresses T4, CYP3A4.28 (Homo sapiens, UniProt P08684, L22V).
T4 construct: made in house; host or cells: insect cells (baculovirus, pFastBac-Dual)
The series is described as follows: In vitro enzyme kinetics assay using CYP3A4 baculosomes: CYP3A4.28. Type of series: in vitro ADME. Here is the method: as §3, §4

For series [3] the following is noted: cited from earlier work.

Entries after “also recorded” stand apart in the source; their conditions may differ.

T4 sequence (P08684 whole entry L22V): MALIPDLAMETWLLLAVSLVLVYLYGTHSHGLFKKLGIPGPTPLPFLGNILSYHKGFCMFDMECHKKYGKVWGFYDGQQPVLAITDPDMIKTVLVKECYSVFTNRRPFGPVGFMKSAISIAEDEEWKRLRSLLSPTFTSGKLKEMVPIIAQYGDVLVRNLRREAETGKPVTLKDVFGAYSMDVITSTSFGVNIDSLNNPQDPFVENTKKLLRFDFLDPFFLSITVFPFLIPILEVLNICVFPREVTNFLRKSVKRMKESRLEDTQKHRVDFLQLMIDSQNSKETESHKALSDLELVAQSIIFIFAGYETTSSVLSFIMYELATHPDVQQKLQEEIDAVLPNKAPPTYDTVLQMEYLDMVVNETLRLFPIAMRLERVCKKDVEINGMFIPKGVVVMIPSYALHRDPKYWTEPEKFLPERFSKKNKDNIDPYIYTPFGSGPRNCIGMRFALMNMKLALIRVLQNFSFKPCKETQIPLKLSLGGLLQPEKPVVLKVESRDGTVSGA
T3 sequence (P08684 with tags, fused parts or gaps limits assumed): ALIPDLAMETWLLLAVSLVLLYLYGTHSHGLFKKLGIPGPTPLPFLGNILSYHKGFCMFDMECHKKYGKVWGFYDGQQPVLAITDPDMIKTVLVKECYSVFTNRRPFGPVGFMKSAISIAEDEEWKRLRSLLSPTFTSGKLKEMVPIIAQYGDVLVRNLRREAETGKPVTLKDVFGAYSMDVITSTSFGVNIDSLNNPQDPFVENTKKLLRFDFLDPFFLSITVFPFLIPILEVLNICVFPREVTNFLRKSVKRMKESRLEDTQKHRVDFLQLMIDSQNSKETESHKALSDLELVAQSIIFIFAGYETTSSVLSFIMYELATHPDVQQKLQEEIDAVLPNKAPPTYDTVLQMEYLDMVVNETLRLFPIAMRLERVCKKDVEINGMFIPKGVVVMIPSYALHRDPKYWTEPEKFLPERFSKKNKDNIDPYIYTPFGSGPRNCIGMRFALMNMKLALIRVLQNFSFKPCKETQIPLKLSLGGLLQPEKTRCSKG
T2 sequence (P08684 whole entry R130Q): as the sequence (P08684 whole entry L22V) above, with V22L, R130Q counted along it
T1 sequence (P08684 whole entry): as the sequence (P08684 whole entry L22V) above, with V22L counted along it

In the case of `CC(C)(C)c1nc(-c2cccc(NS(=O)(=O)c3c(F)cccc3F)c2F)c(-c2ccnc(N)n2)s1` [Dabrafenib], the Km is 14.6 ± 3.08 µM in series [1] and 3.5 ± 0.56 µM in series [2]. Besides, the Vmax came out at 0.14 ± 0.01 pmol/L/min/µg in series [1]; 0.16 ± 0.001 pmol/L/min/µg in series [2]; 0.266 ± 0.007 pmoL/L/min/μg CYP3A4 on CYP3A4.1; 0.247 ± 0.030 pmoL/L/min/μg CYP3A4 on CYP3A4.8 (dabrafenib 5–250 µM); 0.362 ± 0.026 pmoL/L/min/μg CYP3A4 at CYP3A4.28 (dabrafenib 5–250 µM). On CYP3A4.8, the “decrease of relative clearance vs CYP3A4.1” value came to 66.67%. Further, the “metabolic activity toward dabrafenib (in words)” value at CYP3A4.20 is listed as “nearly complete loss of activity; also recorded: lack catalytic activity”. The “increase of relative clearance vs CYP3A4.1” value on CYP3A4.28 is given as 26.67%. In addition, in series [3] (single 150 mg oral dose, clinical, ref Puszkiel et al., 2019, Balakirouchenane et al., 2021), the Cmax was 2,160 ng/mL. Moreover, the “oral bioavailability (F)” value in series [3] (single-dose administration, ref Denton et al., 2013) was 95%.

The Km is the substrate concentration at which the rate is half of its maximum.
